Source: the NIST ThermoML archive (doi:10.1021/je400835u)
± gives the expanded uncertainty stated by the source.

Assay: xn = mol fraction of the nth substance listed
Conditions: 100 kPa, Liquid; for viscosity: Falling or rolling sphere viscometry; for mass density: Vibrating tube method

CCCCC1CCCCC1 [butylcyclohexane] + CCCCCCC
Conditions	mass density, 293.15 K [kg/m3]	mass density, 298.15 K [kg/m3]	mass density, 303.15 K [kg/m3]	mass density, 308.15 K [kg/m3]	mass density, 313.15 K [kg/m3]	viscosity, 293.15 K [mPa·s]	viscosity, 298.15 K [mPa·s]	viscosity, 303.15 K [mPa·s]	viscosity, 308.15 K [mPa·s]	viscosity, 313.15 K [mPa·s]
x1 = 0.0499	691.14 ± 0.17	686.96 ± 0.18	682.7 ± 0.18	678.43 ± 0.18	674.27 ± 0.18	0.445 ± 0.011	0.422 ± 0.01	0.404 ± 0.01	0.38 ± 0.01	0.365 ± 0.01
x1 = 0.0991	698.01 ± 0.17	693.86 ± 0.17	689.65 ± 0.18	685.41 ± 0.18	681.26 ± 0.18	0.477 ± 0.011	0.453 ± 0.011	0.432 ± 0.01	0.408 ± 0.01	0.39 ± 0.01
x1 = 0.2001	711.59 ± 0.17	707.49 ± 0.17	703.36 ± 0.17	699.21 ± 0.17	695.08 ± 0.17	0.537 ± 0.011	0.51 ± 0.011	0.485 ± 0.011	0.463 ± 0.011	0.44 ± 0.011
x1 = 0.2995	724.33 ± 0.17	720.29 ± 0.17	716.21 ± 0.17	712.12 ± 0.17	708.05 ± 0.17	0.597 ± 0.011	0.564 ± 0.011	0.533 ± 0.011	0.508 ± 0.011	0.484 ± 0.011
x1 = 0.4006	736.73 ± 0.16	732.74 ± 0.16	728.7 ± 0.17	724.68 ± 0.17	720.66 ± 0.17	0.665 ± 0.011	0.623 ± 0.011	0.59 ± 0.011	0.56 ± 0.011	0.531 ± 0.011
x1 = 0.4984	748.17 ± 0.16	744.24 ± 0.16	740.26 ± 0.16	736.29 ± 0.16	732.29 ± 0.16	0.741 ± 0.011	0.694 ± 0.011	0.652 ± 0.011	0.617 ± 0.011	0.584 ± 0.011
x1 = 0.6015	759.68 ± 0.16	755.81 ± 0.16	751.86 ± 0.16	747.93 ± 0.16	744 ± 0.16	0.832 ± 0.012	0.776 ± 0.011	0.727 ± 0.011	0.685 ± 0.011	0.646 ± 0.011
x1 = 0.6993	770.09 ± 0.16	766.25 ± 0.16	762.36 ± 0.16	758.5 ± 0.16	754.58 ± 0.16	0.929 ± 0.012	0.865 ± 0.012	0.808 ± 0.012	0.758 ± 0.011	0.713 ± 0.011
x1 = 0.7999	780.33 ± 0.15	776.52 ± 0.15	772.68 ± 0.16	768.84 ± 0.16	764.98 ± 0.16	1.042 ± 0.013	0.966 ± 0.012	0.9 ± 0.012	0.842 ± 0.012	0.789 ± 0.012
x1 = 0.8999	790.07 ± 0.15	786.3 ± 0.15	782.5 ± 0.15	778.7 ± 0.16	774.89 ± 0.16	1.172 ± 0.013	1.083 ± 0.013	1.005 ± 0.012	0.936 ± 0.012	0.875 ± 0.012
x1 = 0.9501	794.82 ± 0.15	791.06 ± 0.15	787.29 ± 0.15	783.51 ± 0.15	779.72 ± 0.16	1.242 ± 0.013	1.146 ± 0.013	1.059 ± 0.013	0.988 ± 0.012	0.922 ± 0.012
x1 = 1	799.44 ± 0.15	795.7 ± 0.15	791.95 ± 0.15	788.19 ± 0.15	784.41 ± 0.15	1.296 ± 0.014	1.196 ± 0.013	1.107 ± 0.013	1.027 ± 0.013	0.958 ± 0.012

CCCCC1CCCCC1 [butylcyclohexane] + CCCCCCCC
Conditions	mass density, 293.15 K [kg/m3]	mass density, 298.15 K [kg/m3]	mass density, 303.15 K [kg/m3]	mass density, 308.15 K [kg/m3]	mass density, 313.15 K [kg/m3]	viscosity, 293.15 K [mPa·s]	viscosity, 298.15 K [mPa·s]	viscosity, 303.15 K [mPa·s]	viscosity, 308.15 K [mPa·s]	viscosity, 313.15 K [mPa·s]
x1 = 0.0495	708.15 ± 0.17	704.15 ± 0.17	700.12 ± 0.17	696.06 ± 0.17	691.99 ± 0.17	0.569 ± 0.011	0.547 ± 0.011	0.515 ± 0.011	0.49 ± 0.011	0.464 ± 0.011
x1 = 0.1008	713.59 ± 0.17	709.59 ± 0.17	705.57 ± 0.17	701.55 ± 0.17	697.5 ± 0.17	0.596 ± 0.011	0.573 ± 0.011	0.54 ± 0.011	0.512 ± 0.011	0.486 ± 0.011
x1 = 0.198	723.69 ± 0.17	719.73 ± 0.17	715.74 ± 0.17	711.75 ± 0.17	707.72 ± 0.17	0.647 ± 0.011	0.619 ± 0.011	0.582 ± 0.011	0.552 ± 0.011	0.524 ± 0.011
x1 = 0.3011	734.16 ± 0.16	730.24 ± 0.16	726.28 ± 0.16	722.33 ± 0.17	718.33 ± 0.17	0.707 ± 0.011	0.671 ± 0.011	0.63 ± 0.011	0.592 ± 0.011	0.565 ± 0.011
x1 = 0.4008	744.07 ± 0.16	740.18 ± 0.16	736.26 ± 0.16	732.33 ± 0.16	728.38 ± 0.16	0.771 ± 0.011	0.726 ± 0.011	0.68 ± 0.011	0.638 ± 0.011	0.606 ± 0.011
x1 = 0.4982	753.55 ± 0.16	749.7 ± 0.16	745.81 ± 0.16	741.91 ± 0.16	737.98 ± 0.16	0.839 ± 0.012	0.784 ± 0.012	0.735 ± 0.011	0.687 ± 0.011	0.652 ± 0.011
x1 = 0.5985	763.12 ± 0.16	759.29 ± 0.16	755.43 ± 0.16	751.56 ± 0.16	747.67 ± 0.16	0.918 ± 0.012	0.854 ± 0.012	0.799 ± 0.012	0.747 ± 0.011	0.705 ± 0.011
x1 = 0.6997	772.58 ± 0.15	768.77 ± 0.16	764.94 ± 0.16	761.1 ± 0.16	757.24 ± 0.16	1.004 ± 0.012	0.931 ± 0.012	0.87 ± 0.012	0.814 ± 0.012	0.765 ± 0.011
x1 = 0.7997	781.72 ± 0.15	777.93 ± 0.15	774.13 ± 0.16	770.31 ± 0.16	766.48 ± 0.16	1.097 ± 0.013	1.014 ± 0.012	0.945 ± 0.012	0.886 ± 0.012	0.83 ± 0.012
x1 = 0.9001	790.72 ± 0.15	786.95 ± 0.15	783.18 ± 0.15	779.39 ± 0.15	775.59 ± 0.16	1.2 ± 0.013	1.108 ± 0.013	1.029 ± 0.013	0.962 ± 0.012	0.898 ± 0.012
x1 = 0.951	795.17 ± 0.15	791.42 ± 0.15	787.66 ± 0.15	783.88 ± 0.15	780.1 ± 0.15	1.25 ± 0.014	1.156 ± 0.013	1.07 ± 0.013	0.996 ± 0.012	0.93 ± 0.012
x1 = 1	799.44 ± 0.15	795.7 ± 0.15	791.95 ± 0.15	788.19 ± 0.15	784.41 ± 0.15	1.296 ± 0.014	1.196 ± 0.013	1.107 ± 0.013	1.027 ± 0.013	0.958 ± 0.012

CCCCC1CCCCC1 [butylcyclohexane] + CCCCCCCCC
Conditions	mass density, 293.15 K [kg/m3]	mass density, 298.15 K [kg/m3]	mass density, 303.15 K [kg/m3]	mass density, 308.15 K [kg/m3]	mass density, 313.15 K [kg/m3]	viscosity, 293.15 K [mPa·s]	viscosity, 298.15 K [mPa·s]	viscosity, 303.15 K [mPa·s]	viscosity, 308.15 K [mPa·s]	viscosity, 313.15 K [mPa·s]
x1 = 0.0496	721.95 ± 0.16	718.07 ± 0.17	714.19 ± 0.17	710.29 ± 0.17	706.36 ± 0.17	0.745 ± 0.011	0.698 ± 0.011	0.659 ± 0.011	0.621 ± 0.011	0.588 ± 0.011
x1 = 0.1008	726.12 ± 0.16	722.26 ± 0.16	718.38 ± 0.17	714.48 ± 0.17	710.57 ± 0.17	0.764 ± 0.011	0.718 ± 0.011	0.677 ± 0.011	0.638 ± 0.011	0.603 ± 0.011
x1 = 0.2011	734.29 ± 0.16	730.45 ± 0.16	726.59 ± 0.16	722.71 ± 0.16	718.81 ± 0.17	0.807 ± 0.012	0.754 ± 0.011	0.712 ± 0.011	0.668 ± 0.011	0.63 ± 0.011
x1 = 0.3005	742.39 ± 0.16	738.56 ± 0.16	734.71 ± 0.16	730.85 ± 0.16	726.97 ± 0.16	0.852 ± 0.012	0.794 ± 0.012	0.745 ± 0.011	0.698 ± 0.011	0.659 ± 0.011
x1 = 0.3997	750.46 ± 0.16	746.65 ± 0.16	742.81 ± 0.16	738.96 ± 0.16	735.1 ± 0.16	0.901 ± 0.012	0.836 ± 0.012	0.783 ± 0.012	0.733 ± 0.011	0.692 ± 0.011
x1 = 0.4999	758.62 ± 0.16	754.82 ± 0.16	751 ± 0.16	747.17 ± 0.16	743.32 ± 0.16	0.956 ± 0.012	0.885 ± 0.012	0.827 ± 0.012	0.774 ± 0.011	0.729 ± 0.011
x1 = 0.5987	766.67 ± 0.16	762.89 ± 0.16	759.08 ± 0.16	755.26 ± 0.16	751.43 ± 0.16	1.015 ± 0.012	0.94 ± 0.012	0.876 ± 0.012	0.82 ± 0.012	0.77 ± 0.011
x1 = 0.7011	775.04 ± 0.15	771.26 ± 0.15	767.46 ± 0.16	763.66 ± 0.16	759.85 ± 0.16	1.081 ± 0.013	1.002 ± 0.012	0.934 ± 0.012	0.873 ± 0.012	0.817 ± 0.012
x1 = 0.8001	783.13 ± 0.15	779.35 ± 0.15	775.57 ± 0.15	771.78 ± 0.16	767.98 ± 0.16	1.152 ± 0.013	1.068 ± 0.013	0.996 ± 0.012	0.927 ± 0.012	0.866 ± 0.012
x1 = 0.8996	791.25 ± 0.15	787.5 ± 0.15	783.73 ± 0.15	779.96 ± 0.15	776.17 ± 0.16	1.223 ± 0.013	1.135 ± 0.013	1.052 ± 0.013	0.98 ± 0.012	0.915 ± 0.012
x1 = 0.9504	795.39 ± 0.15	791.64 ± 0.15	787.88 ± 0.15	784.11 ± 0.15	780.33 ± 0.15	1.262 ± 0.014	1.166 ± 0.013	1.08 ± 0.013	1.005 ± 0.012	0.938 ± 0.012
x1 = 1	799.44 ± 0.15	795.7 ± 0.15	791.95 ± 0.15	788.19 ± 0.15	784.41 ± 0.15	1.296 ± 0.014	1.196 ± 0.013	1.107 ± 0.013	1.027 ± 0.013	0.958 ± 0.012
